The target in the first assay is farnesyl transferase (Homo sapiens, UniProt P49354+P49356). Kind of assay: Farnesyl transferase inhibition, [3H]-farnesylation of biotinylated K-ras C-terminal peptide (SPA assay). The conditions noted are these: In vitro inhibitory activity (K-Ras) IC50, K-Ras substrate; 60 min at 37° C.; mean of two IC50 values. Type of assay: biochemical. The protocol: The farnesyl transferase activity was measured by the amount farnesylated of K-ras substrate or of substrate derived from the peptide corresponding to its C-terminal part, the farnesyl group being introduced by farnesyl pyrophosphate (FPP).
It was then brought into contact with PVT-streptavidin (Amersham)® beads and was quantified by proximity scintillation (SPA assay) between the tritium and the PVT beads, by virtue of the streptavidin/biotin interaction.
Experimentally, farnesyl transferase purified according to the appended protocol was diluted, for this assay, to a concentration such that a consumption of substrates of less than 30% was obtained.
The reaction, carried out in Optiplates 96° microtitration plates, was initiated by the enzyme and lasted sixty minutes at 37° C. It was stopped by addition of 150 μl of mixture of a blocking buffer at pH 4 composed of 0.2M H3 PO4, 1.5 mM MgCl2, 0.5% (w/v) BSA, 0.05% (w/v) sodium azide containing 200 μg of PVT-streptavidin beads.
After slow agitation for thirty minutes (in order to remove the chemiluminescence), the plates were read as [^3 H]CPM in a Top Count® (Packard) scintillation counter for microplates, where they were converted into [^3 H]DPM from a range of coloured agent attenuating the scintillation (quenching).
The percentages of inhibition were calculated with respect to an inhibitor-free control after subtraction from all the values of that of a blank which only contained the substrates and the buffer.
The IC50 values were calculated or measured, from the inhibitions obtained at nine different concentrations, with Enzfitter® or Grafit® software. The IC50 values which appear in the results are the mean of measurements and calculations of two IC50 values.
On to `C=C(C(=O)N1C[C@H]2[C@@]3(c4ccc(C)s4)CC[C@@H](c4ccccc43)[C@]2(C(=O)O)C1)c1ccccc1OC` (racemic) [Example 48, (3aRS,4SR,9SR,9aRS)-4,9-ethano-2-[2-(2-methoxyphenyl)propenoyl]-9-(5-methyl-2-thienyl)-2,3,3a,4,9,9a-hexahydro-1H-benzo[f]isoindole-3a-carboxylic Acid], for which the IC50 came to 0.095 µM.

Staying with this assay, now noted: K-Ras substrate; 60 min at 37° C.; mean of two IC50 values; read-out: In vitro inhibitory activity (K-Ras) IC50.
For the compound `C=C(C(=O)N1C[C@@H]2[C@]3(c4ccc(C)cc4)CC[C@@H](c4ccccc43)[C@]2(C(=O)OC)C1)c1ccccc1OC` (racemic) [Example 1, methyl (3aRS,4SR,9SR,9aRS)-4,9-ethano-2-[2-(2-methoxyphenyl)propenoyl]-9-(4-methylphenyl)-2,3,3a,4,9,9a-hexahydro-1H-benzo[f]isoindole-3a-carboxylate], the half-inhibitory concentration (IC50) amounted to 0.305 µM.

Turning to `C=C(C(=O)N1C[C@@H]2[C@@]3(c4ccc(C)cc4)CC[C@@H](c4ccccc43)[C@]2(C(=O)O)C1)c1ccccc1OC` (racemic) [Example 2, (3aRS,4SR,9RS,9aRS)-4,9-ethano-2-[2-(2-methoxyphenyl)propenoyl]-9-(4-methylphenyl)-2,3,3a,4,9,9a-hexahydro-1H-benzo[f]isoindole-3a-carboxylic Acid], the IC50 was 0.045 µM.

Take `COC(=O)[C@@]12CN(C(=O)Cc3ccccc3OC)C[C@@H]1[C@]1(c3ccc(C)c(C)c3)CC[C@H]2c2ccccc21` (racemic) [Example 11, Methyl (3aRS,4SR,9SR,9aRS)-9-(3,4-dimethylphenyl)-4,9-ethano-2-[(2-methoxyphenyl)acetyl]-2,3,3a,4,9,9a-hexahydro-1H-benzo[f]isoindole-3a-carboxylate]: the IC50 is 0.345 µM. On the same count and under the same terms, the figure for `COc1ccccc1CC(=O)N1C[C@@H]2[C@]3(c4ccc(C)c(C)c4)CC[C@@H](c4ccccc43)[C@]2(C(=O)O)C1` (racemic) [Example 12, (3aRS,4SR,9SR,9aRS)-9-(3,4-dimethyl-phenyl)-4,9-ethano-2-[(2-methoxyphenyl)acetyl]-2,3,3a,4,9,9a-hexahydro-1H-benzo[f]isoindole-3a-carboxylic Acid] is 0.045 µM. Consider `C=C(C(=O)N1C[C@@H]2[C@]3(c4ccc(C)cc4)CC[C@@H](c4ccccc43)[C@]2(C(=O)NOCc2ccccc2)C1)c1ccccc1OC` (racemic) [Example 14, benzyl (3aRS,4SR,9SR,9aRS)-4,9-ethano-2-[2-(2-methoxyphenyl)propenoyl]-9-(4-methylphenyl)-2,3,3a,4,9,9a-hexahydro-1H-benzo[f]isoindole-3a-hydroxamate], for which the IC50 turned out to be 0.21 µM.

For `C=C(C(=O)N1C[C@@H]2[C@]3(c4ccc(C)cc4)CC[C@@H](c4ccccc43)[C@]2(C(N)=O)C1)c1ccccc1OC` (racemic) [Example 15, (3aRS,4SR,9SR,9aRS)-3a-carbamoyl-4,9-ethano-2-[2-(2-methoxyphenyl)propenoyl]-9-(4-methylphenyl)-2,3,3a,4,9,9a-hexahydro-1H-benzo[f]isoindole], the IC50 stood at 0.17 µM. Still for that read-out and setting: the figure for `C=C(C(=O)N1C[C@@H]2[C@]3(c4ccc(C)cc4)CC[C@@H](c4ccccc43)[C@]2(C(=O)NO)C1)c1ccccc1OC` (racemic) [Example 16, (3aRS,4SR,9SR,9aRS)-4,9-ethano-2-[2-(2-methoxyphenyl)propenoyl]-9-(4-methylphenyl)-2,3,3a,4,9,9a-hexahydro-1H-benzo[f]isoindole-3a-hydroxamic acid] is 0.36 µM; for `C=C(C(=O)N1C[C@@H]2[C@]3(c4ccc(C)cc4)CC[C@@H](c4ccccc43)[C@]2(C(=O)NOC)C1)c1ccccc1OC` (racemic) [Example 21, Methyl (3aRS,4SR,9SR,9aRS)-4,9-ethano-2-[2-(2-methoxyphenyl)propenoyl]-9-(4-methylphenyl)-2,3,3a,4,9,9a-hexahydro-1H-benzo[f]isoindole-3a-hydroxamate] it is 0.111 µM; for `C=C(C(=O)N1C[C@@H]2[C@]3(c4ccc(C)cc4)CC[C@@H](c4ccccc43)[C@]2(C(=O)NS(=O)(=O)c2ccccc2)C1)c1ccccc1OC` (racemic) [Example 25, (3aRS,4SR,9SR,9aRS)-4,9-ethano-2-[2-(2-methoxyphenyl)propenoyl]-9-(4-methylphenyl)-3a-phenylsulphonylaminocarbonyl-2,3,3a,4,9,9a-hexahydro-1H-benzo[f]isoindole] it is 0.193 µM. Consider `C=C(C(=O)N1C[C@@H]2[C@]3(c4ccc5c(c4)OCCO5)CC[C@@H](c4ccccc43)[C@]2(C(=O)OC)C1)c1ccccc1OC` (racemic) [Example 31, methyl (3aRS,4SR,9SR,9aRS)-9-(2,3-dihydro-1,4-benzodioxin-6-yl)-4,9-ethano-2-[2-(2-methoxyphenyl)propenoyl]-2,3,3a,4,9,9a-hexahydro-1H-benzo[f]isoindole-3a-carboxylate], for which the IC50 was 0.101 µM. Take `C=C(C(=O)N1C[C@@H]2[C@]3(c4ccc5c(c4)OCCO5)CC[C@@H](c4ccccc43)[C@]2(C(=O)O)C1)c1ccccc1OC` (racemic) [Example 32, (3aRS,4SR,9SR,9aRS)-9-(2,3-dihydro-1,4-benzodioxin-6-yl)-4,9-ethano-2-[2-(2-methoxyphenyl)-propenoyl]-2,3,3a,4,9,9a-hexahydro-1H-benzo[f]isoindole-3a-carboxylic Acid]: the IC50 was 0.106 µM.

With `COc1ccccc1CC(=O)N1C[C@@H]2[C@]3(c4cc(C)c(C)c(C)c4)CC[C@@H](c4ccccc43)[C@]2(C(=O)O)C1` (racemic) [Example 37, (3aRS,4SR,9SR,9aRS)-4,9-ethano-2-[(2-methoxyphenyl)acetyl]-9-(3,4,5-trimethylphenyl)-2,3,3a,4,9,9a-hexahydro-1H-benzo[f]isoindole-3a-carboxylic Acid], the IC50 is 0.088 µM. Take `C=C(C(=O)N1C[C@@H]2[C@]3(c4ccccc4C)CC[C@@H](c4ccccc43)[C@]2(C(=O)O)C1)c1ccccc1OC` (racemic) [Example 38, (3aRS,4SR,9SR,9aRS)-4,9-ethano-2-[2-(2-methoxyphenyl)propenoyl]-9-(2-methylphenyl)-2,3,3a,4,9,9a-hexahydro-1H-benzo[f]isoindole-3a-carboxylic Acid]: the concentration for half-maximal inhibition (IC50) was found to be 0.099 µM.

As to `C=C(C(=O)N1C[C@@H]2[C@]3(c4ccc(C(F)(F)F)cc4)CC[C@@H](c4ccccc43)[C@]2(C(=O)OC)C1)c1ccccc1OC` (racemic) [Example 39, methyl (3aRS,4SR,9SR,9aRS)-4,9-ethano-2-[2-(2-methoxyphenyl)propenoyl]-9-[4-(trifluoromethyl)phenyl]-2,3,3a,4,9,9a-hexahydro-1H-benzo[f]isoindole-3a-carboxylate], the half-inhibitory concentration (IC50) came to 0.273 µM. The same measure, in the same setting: the figure for `C=C(C(=O)N1C[C@@H]2[C@]3(c4ccc(C(F)(F)F)cc4)CC[C@@H](c4ccccc43)[C@]2(C(=O)O)C1)c1ccccc1OC` (racemic) [Example 40, (3aRS,4SR,9SR,9aRS)-4,9-ethano-2-[2-(2-methoxyphenyl)propenoyl]-9-[4-(trifluoromethyl)phenyl]-2,3,3a,4,9,9a-hexahydro-1H-benzo[f]isoindole-3a-carboxylic Acid] is 0.083 µM. On the same count and under the same terms, next, `C=C(C(=O)N1C[C@@H]2[C@]3(c4ccc5ccccc5c4)CC[C@@H](c4ccccc43)[C@]2(C(=O)OC)C1)c1ccccc1OC` (racemic) [Example 45, methyl (3aRS,4SR,9SR,9aRS)-4,9-ethano-2-[2-(2-methoxyphenyl)propenoyl]-9-(2-naphthyl)-2,3,3a,4,9,9a-hexahydro-1H-benzo[f]isoindole-3a-carboxylate]: 0.181 µM. Same read-out and setting: the figure for `C=C(C(=O)N1C[C@H]2[C@@]3(c4ccc(C)s4)CC[C@@H](c4ccccc43)[C@]2(C(=O)OC)C1)c1ccccc1OC` (racemic) [Example 47, methyl (3aRS,4SR,9SR,9aRS)-4,9-ethano-2-[2-(2-methoxyphenyl)propenoyl]-9-(5-methyl-2-thienyl)-2,3,3a,4,9,9a-hexahydro-1H-benzo[f]isoindole-3a-carboxylate] is 0.207 µM; for `C=C(C(=O)N1C[C@@H]2[C@]3(c4ccc(Br)cc4)CC[C@@H](c4ccccc43)[C@]2(C(=O)OC)C1)c1ccccc1OC` (racemic) [Example 49, methyl (3aRS,4SR,9SR,9aRS)-9-(4-bromophenyl)-4,9-ethano-2-[2-(2-methoxyphenyl)-propenoyl]-2,3,3a,4,9,9a-hexahydro-1H-benzo[f]isoindole-3a-carboxylate] it is 0.229 µM. Turning to `C=C(C(=O)N1C[C@@H]2[C@]3(c4ccc(Br)cc4)CC[C@@H](c4ccccc43)[C@]2(C(=O)O)C1)c1ccccc1OC` (racemic) [Example 50, (3aRS,4SR,9SR,9aRS)-9-(4-bromophenyl)-4,9-ethano-2-[2-(2-methoxyphenyl)propenoyl]-2,3,3a,4,9,9a-hexahydro-1H-benzo[f]isoindole-3a-carboxylic Acid], the IC50 came to 0.059 µM. As to `C=C(C(=O)N1C[C@@H]2[C@]3(c4ccc(Cl)c(Cl)c4)CC[C@@H](c4ccccc43)[C@]2(C(=O)O)C1)c1ccccc1OC` (racemic) [Example 51, (3aRS,4SR,9SR,9aRS)-9-(3,4-dichlorophenyl)-4,9-ethano-2-[2-(2-methoxyphenyl)-propenoyl]-2,3,3a,4,9,9a-hexahydro-1H-benzo[f]isoindole-3a-carboxylic Acid], the IC50 was 0.068 µM.

The values are drawn from US6218406A, “Farnesyl transferase inhibitors, their preparation, the pharmaceutical compositions which contain them and their use in the preparation of medicaments” (Aventis Pharma S.A., priority 1996, dated 2001).
